Data: patent publication US8796268B2, “Heteroaryls and uses thereof” (Millennium Pharmaceuticals, Inc., priority 2010, dated 2014)

Columns and labels:
Assay type in all cases: biochemical
Human PI3K beta = biological target: T1, Human PI3K beta (Homo sapiens, UniProt P42338); experiment: Human PI3K beta enzyme assay (HTRF); settings: concentration not given, b1387 states 1.1 μM for PI3K α and β; for inhibition at 1.1 µM: read-out: p110 beta Percent Inhibition
T1 construct: His (N); host or cells: SF9 insect cells (baculovirus)
T1 sequence (P42338 whole entry): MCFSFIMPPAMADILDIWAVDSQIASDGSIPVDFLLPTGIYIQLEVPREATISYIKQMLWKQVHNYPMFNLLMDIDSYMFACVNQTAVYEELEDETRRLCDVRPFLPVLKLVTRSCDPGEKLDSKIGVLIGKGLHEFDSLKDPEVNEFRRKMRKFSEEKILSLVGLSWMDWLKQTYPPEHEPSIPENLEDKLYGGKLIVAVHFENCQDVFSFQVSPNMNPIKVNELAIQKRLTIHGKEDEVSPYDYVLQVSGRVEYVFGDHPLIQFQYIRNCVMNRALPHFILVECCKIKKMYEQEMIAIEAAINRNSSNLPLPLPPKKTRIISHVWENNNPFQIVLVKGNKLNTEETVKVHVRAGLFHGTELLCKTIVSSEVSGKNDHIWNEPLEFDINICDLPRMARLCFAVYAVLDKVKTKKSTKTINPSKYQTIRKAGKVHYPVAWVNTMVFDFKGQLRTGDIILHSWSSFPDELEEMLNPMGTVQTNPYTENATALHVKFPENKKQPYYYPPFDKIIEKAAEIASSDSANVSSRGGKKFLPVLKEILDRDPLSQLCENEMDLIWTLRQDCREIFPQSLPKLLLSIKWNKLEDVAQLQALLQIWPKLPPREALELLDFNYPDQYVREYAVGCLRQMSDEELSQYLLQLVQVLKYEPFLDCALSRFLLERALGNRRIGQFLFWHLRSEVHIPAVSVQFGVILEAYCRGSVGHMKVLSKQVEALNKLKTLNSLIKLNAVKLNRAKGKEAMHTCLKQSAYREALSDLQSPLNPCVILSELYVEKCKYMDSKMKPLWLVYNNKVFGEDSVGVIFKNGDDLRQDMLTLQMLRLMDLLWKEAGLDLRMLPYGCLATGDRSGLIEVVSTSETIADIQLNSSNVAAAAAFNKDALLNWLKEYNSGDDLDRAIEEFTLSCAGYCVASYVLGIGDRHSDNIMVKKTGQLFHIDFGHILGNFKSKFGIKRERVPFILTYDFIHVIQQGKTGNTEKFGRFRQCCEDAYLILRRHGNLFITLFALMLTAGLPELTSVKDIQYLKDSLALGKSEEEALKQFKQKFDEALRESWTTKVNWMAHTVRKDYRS
T1 sequence (P27986 whole entry partner): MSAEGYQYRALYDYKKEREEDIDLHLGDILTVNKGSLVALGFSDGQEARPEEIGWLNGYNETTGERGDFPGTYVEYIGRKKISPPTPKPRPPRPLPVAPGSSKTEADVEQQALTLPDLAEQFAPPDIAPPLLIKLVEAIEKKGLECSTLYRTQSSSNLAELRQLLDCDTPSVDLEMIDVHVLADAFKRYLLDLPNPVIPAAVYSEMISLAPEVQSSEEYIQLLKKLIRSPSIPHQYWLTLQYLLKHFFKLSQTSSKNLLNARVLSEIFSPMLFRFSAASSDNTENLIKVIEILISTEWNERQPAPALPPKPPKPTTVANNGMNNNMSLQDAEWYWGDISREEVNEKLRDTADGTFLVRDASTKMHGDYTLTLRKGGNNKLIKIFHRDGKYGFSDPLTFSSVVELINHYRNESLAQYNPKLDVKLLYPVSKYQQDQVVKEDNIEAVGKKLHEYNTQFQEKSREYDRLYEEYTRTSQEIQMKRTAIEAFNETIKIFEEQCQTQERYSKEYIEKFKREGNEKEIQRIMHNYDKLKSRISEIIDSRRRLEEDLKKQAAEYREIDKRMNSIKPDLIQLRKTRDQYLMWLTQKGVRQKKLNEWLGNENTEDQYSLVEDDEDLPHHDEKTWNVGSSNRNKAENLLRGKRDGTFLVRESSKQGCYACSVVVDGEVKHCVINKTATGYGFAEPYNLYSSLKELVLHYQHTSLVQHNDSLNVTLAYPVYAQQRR
Method in brief: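 Compounds were mixed with 25 uM ATP, then with 3.5 uM di-C8 PI(4,5)P2 and His-tagged PI3K isoform (β 5.25 nM, δ 0.75 nM, γ 5 nM) at pH 7.00. After 30 min at room temperature, EDTA stopped the reaction and PIP3 was measured by HTRF over 1 h.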

Human PI3K gamma = biological target: T2, Human PI3K gamma (Homo sapiens, UniProt P48736); experiment: Human PI3K gamma enzyme assay (HTRF); settings: concentration not given, b1389 states 1.0 μM for PI3K δ and γ; for inhibition at 1 µM: read-out: p110 gamma Percent Inhibition
T2 construct: His (N); host or cells: SF9 insect cells (baculovirus)
T2 sequence (P48736 whole entry): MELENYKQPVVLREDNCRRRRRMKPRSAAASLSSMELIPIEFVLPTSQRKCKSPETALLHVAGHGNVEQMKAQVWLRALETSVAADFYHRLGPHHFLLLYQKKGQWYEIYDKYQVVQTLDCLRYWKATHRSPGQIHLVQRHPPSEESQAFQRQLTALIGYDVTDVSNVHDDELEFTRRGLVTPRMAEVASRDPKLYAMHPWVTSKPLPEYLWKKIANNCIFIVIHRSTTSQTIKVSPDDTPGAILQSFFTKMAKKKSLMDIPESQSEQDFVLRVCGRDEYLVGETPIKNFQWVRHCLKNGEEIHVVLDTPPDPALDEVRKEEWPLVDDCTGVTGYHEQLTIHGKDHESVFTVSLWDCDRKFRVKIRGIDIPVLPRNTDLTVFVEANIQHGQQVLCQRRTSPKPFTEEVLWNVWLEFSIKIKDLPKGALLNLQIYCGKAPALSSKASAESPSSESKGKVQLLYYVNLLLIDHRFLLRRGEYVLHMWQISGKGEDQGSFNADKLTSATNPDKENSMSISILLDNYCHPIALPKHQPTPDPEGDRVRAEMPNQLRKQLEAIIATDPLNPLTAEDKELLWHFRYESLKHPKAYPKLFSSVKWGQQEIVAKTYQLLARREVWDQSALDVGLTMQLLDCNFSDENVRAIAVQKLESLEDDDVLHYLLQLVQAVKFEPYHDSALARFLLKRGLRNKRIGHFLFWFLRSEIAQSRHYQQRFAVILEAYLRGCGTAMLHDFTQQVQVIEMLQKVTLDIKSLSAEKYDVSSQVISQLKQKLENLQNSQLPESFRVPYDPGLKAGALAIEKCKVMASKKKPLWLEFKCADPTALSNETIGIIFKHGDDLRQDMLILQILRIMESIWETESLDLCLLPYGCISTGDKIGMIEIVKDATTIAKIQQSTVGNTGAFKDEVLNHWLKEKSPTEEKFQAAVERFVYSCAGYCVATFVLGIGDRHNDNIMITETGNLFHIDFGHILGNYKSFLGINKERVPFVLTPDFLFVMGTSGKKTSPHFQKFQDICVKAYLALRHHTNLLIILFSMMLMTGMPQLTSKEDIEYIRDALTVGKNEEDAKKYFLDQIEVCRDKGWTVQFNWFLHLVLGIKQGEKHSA
Source text: (§1) The catalytic subunits of PI3Ks are cloned into either pDEST8(p110 alpha) or pDEST10(p110beta, p110delta, and p110gamma) as N-terminal His tagged fusion proteins using the Gateway system (Invitrogen, catalog#11804-010 for pDEST8 and 11806-015 for pDEST10). The sequences are verified before recombinant protein expression using the Baculovirus Expression System with Gateway® Technology. The accession numbers for the subunits are as follows: • p110 alpha (GB:U79143) • p110beta (GB: S67334) • p110delta (GB: U86453) • p110gamma (GB: X83368) • The regulatory subunits of PI3Ks are cloned into pDEST8 as un-tagged protein using the Gateway system (Catalog#11804-010). The sequences are verified before recombinant protein expression using the Baculovirus Expression System with Gateway® Technology. The accession numbers for the subunits are as following: • p85 alpha (GB: BC030815) • p101(GB: AB028925) • VPS34 (accession number GB:BC033004) is cloned into pDEST20—Thombin as N-terminal GST tagged fusion proteins using the Gateway system (Invitrogen, catalog#11804-013). The sequences are verified before recombinant protein expression using the Baculovirus Expression System with Gateway® Technology.
(§2) For expression of the p110 complexes, the p85 (MOI of 4) is co-infected with p110 alpha, beta, and delta respectively (1MOI) in SF9 cells and harvested at 60 hours post co-infection. P110 gamma was infected at 1 MOI and harvested at 60 hours post infection.
(§3) For purification, PI3Ks are purified by Ni-NTA Agarose (Qiagen #30250) followed by Mono Q 10/100 GL (Ge Healthcare #17-5167-01). VPS34 is purified by Glutathione Sepharose 4 Fast Flow (GE Healthcare #17-5132-03) followed by HiTrap Q (GE Healthcare #17-1153-01).
(§4) 0.5 uL compounds in DMSO are added to wells of a 384 well microtitre plate (Corning 3575). At room temperature: 10 ul PI3K reaction buffer (50 mM Hepes, 5 mM DTT, 150 mM NaCl, 10 mM beta-glycerophosphate, 10 mM MgCl2, 0.25 mM sodium cholate and 0.001% CHAPS, pH 7.00) containing ATP (25 uM, Promega) is added followed immediately by 10 ul PI3K reaction buffer containing di-C8 P1(4,5)P2 (3.5 uM, CellSignals) and PI3Kalpha (0.4875 nM, Millennium Protein Sciences Group) and the mixture is incubated with shaking at room temperature for 30 minutes. Then 5 ul PI3K stop mix (50 mM Hepes, 5 mM DTT, 150 mM NaCl, 0.01% Tween-20, 15 mM EDTA and 25 nM biotin-PI(3,4,5)P3 (Echelon) is added to quench the reaction followed immediately by addition of 5 ul HTRF detection mix (50 mM Hepes, 5 mM DTT, 150 mM NaCl, 0.01% Tween-20, 40 mM KF, 1.0 nM GST:GRP-1 PH domain (Millennium Protein Sciences Group), 15 nM Streptavidin-XL (CisBio) and 0.375 nM anti-GST Eu++ antibody (CisBio) at pH 7.00). The plates are then incubated for 1 hour at room temperature with shaking and then read on a BMG PheraStar Plus reader.
(§5) 2) Human PI3K beta, delta and gamma isoforms are tested using the procedure described for PI3K alpha above but with the following changes: PI3K beta (5.25 nM), PI3K delta (0.75 nM) and PI3K gamma (5 nM). All isoforms supplied by Millennium Protein Science Group.
(§6) For the assay methods described above, test compound percent inhibition, at various concentrations, is calculated relative to control (DMSO and EDTA) treated samples. Compound concentration versus percent inhibition curves are fitted to generate IC50 values. One skilled in the art will appreciate that the values generated either as percentage inhibition at a single concentration or IC50 values are subject to experimental variation.

Human PI3K delta = biological target: T3, Human PI3K delta (Homo sapiens, UniProt O00329); experiment: Human PI3K delta enzyme assay (HTRF); settings: concentration not given, b1389 states 1.0 μM for PI3K δ and γ; for inhibition at 1 µM: read-out: p110 delta Percent Inhibition
T3 construct: His (N); host or cells: SF9 insect cells (baculovirus)
T3 sequence (O00329 whole entry): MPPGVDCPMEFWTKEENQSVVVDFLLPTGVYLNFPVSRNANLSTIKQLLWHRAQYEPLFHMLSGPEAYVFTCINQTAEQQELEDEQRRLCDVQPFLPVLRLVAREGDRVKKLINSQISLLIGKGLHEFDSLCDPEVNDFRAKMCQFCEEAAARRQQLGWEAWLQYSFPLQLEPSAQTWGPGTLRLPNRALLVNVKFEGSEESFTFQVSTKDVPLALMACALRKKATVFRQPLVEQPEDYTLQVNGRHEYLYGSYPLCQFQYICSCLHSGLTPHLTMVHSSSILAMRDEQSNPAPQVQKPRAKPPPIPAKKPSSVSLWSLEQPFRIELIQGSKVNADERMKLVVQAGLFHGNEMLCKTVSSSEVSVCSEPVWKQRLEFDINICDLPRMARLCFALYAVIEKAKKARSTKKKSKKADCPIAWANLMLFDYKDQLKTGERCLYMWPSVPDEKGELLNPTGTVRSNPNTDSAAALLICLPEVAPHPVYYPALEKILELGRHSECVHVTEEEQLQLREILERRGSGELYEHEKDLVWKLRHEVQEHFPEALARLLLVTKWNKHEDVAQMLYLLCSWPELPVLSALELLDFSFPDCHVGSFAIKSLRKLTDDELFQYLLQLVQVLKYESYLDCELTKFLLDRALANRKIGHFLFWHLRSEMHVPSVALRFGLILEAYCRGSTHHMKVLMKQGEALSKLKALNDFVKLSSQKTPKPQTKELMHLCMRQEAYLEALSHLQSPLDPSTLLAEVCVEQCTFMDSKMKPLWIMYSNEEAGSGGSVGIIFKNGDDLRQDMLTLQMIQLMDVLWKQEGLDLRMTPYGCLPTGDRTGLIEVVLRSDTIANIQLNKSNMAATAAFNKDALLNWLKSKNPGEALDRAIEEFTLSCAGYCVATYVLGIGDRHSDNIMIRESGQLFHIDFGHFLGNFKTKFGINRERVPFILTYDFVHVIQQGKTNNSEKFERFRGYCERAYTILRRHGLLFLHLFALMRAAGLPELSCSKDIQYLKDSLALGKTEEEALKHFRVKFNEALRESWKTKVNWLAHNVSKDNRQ
T3 sequence (P27986 whole entry partner): as the sequence (P27986 whole entry partner) above
Source text: as §1, §2, §3, §4, §5, §6

Human PI3K alpha = biological target: T4, Human PI3K alpha (Homo sapiens, UniProt P42336); experiment: Human PI3K alpha enzyme assay (HTRF); settings: concentration not given, b1387 states 1.1 μM for PI3K α and β; for inhibition at 1.1 µM: read-out: p110 alpha Percent Inhibition
T4 construct: His (N); host or cells: SF9 insect cells (baculovirus)
T4 sequence (P42336 whole entry): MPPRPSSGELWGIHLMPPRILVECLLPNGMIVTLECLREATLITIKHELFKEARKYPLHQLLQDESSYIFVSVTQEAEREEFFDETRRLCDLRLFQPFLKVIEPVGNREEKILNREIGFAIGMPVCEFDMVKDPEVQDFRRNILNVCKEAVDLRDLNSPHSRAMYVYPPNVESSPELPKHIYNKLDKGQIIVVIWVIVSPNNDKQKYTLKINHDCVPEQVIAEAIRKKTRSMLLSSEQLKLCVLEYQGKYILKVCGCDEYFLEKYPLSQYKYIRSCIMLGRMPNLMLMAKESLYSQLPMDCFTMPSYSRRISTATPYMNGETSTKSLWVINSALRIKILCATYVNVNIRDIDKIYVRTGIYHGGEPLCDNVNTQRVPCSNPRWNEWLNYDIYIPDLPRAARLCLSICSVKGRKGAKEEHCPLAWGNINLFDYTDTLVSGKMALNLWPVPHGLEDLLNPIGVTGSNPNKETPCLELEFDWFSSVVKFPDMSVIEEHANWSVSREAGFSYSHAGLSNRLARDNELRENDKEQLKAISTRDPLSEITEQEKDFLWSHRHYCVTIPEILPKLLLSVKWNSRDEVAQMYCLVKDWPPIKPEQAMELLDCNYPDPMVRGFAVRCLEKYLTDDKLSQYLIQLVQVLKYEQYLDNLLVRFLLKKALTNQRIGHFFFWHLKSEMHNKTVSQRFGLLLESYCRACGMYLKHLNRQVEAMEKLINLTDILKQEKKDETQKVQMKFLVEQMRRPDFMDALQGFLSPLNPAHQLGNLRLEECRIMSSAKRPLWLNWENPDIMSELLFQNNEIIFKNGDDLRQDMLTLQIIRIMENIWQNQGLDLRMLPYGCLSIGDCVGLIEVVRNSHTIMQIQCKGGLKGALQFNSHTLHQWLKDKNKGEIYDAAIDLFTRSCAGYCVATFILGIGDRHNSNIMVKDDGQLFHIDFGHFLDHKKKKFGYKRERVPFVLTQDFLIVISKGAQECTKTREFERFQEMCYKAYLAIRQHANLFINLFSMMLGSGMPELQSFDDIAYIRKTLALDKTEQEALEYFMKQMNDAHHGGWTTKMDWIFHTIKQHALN
T4 sequence (P27986 whole entry partner): as the sequence (P27986 whole entry partner) above

Structure (SMILES)	inhibition at 1.1 µM (Human PI3K beta)	inhibition at 1 µM (Human PI3K gamma)	inhibition at 1 µM (Human PI3K delta)	inhibition at 1.1 µM (Human PI3K alpha)	p110 gamma Percent Inhibition (Human PI3K gamma)	p110 delta Percent Inhibition (Human PI3K delta)	p110 alpha Percent Inhibition (Human PI3K alpha)	p110 beta Percent Inhibition (Human PI3K beta)
N#Cc1c(-c2ccnnc2)sc(-c2nnc[nH]2)c1C(O)c1ccc2ccccc2c1 (centres unmarked) [Compound 198]	108%	35%	70%	18%				
NC(=O)c1ccc2ccc(Cc3nc(N4CCOCC4)sc3C(=O)O)cc2c1 [Compound 318]	96%	14%	76%	18%				
O=C(O)c1sc(N2CCOCC2)nc1Cc1cc2ccccc2s1 [Compound 286]	92%	50%	104%	36%				
CC(=O)Nc1cc(-c2sc(-c3nnc[nH]3)c(Sc3ccc(Cl)cc3)c2C#N)ccn1 [Compound 166]	82%	3%	85%	92%				
N#Cc1c(N2CCOCC2)sc(-c2nnn[nH]2)c1Cc1ccc2ccccc2c1 [Compound 316, 2-(morpholin-4-yl)-4-(2-naphthylmethyl)-5-(1H-tetrazol-5-yl)thiophene-3-carbonitrile]	106%	62%	111%	78%				
COc1cc(C(O)c2cc(-c3ccnnc3)sc2-c2nnc[nH]2)c(F)cc1Cl (centres unmarked) [Compound 282]	99%			14%	21%	64%		
CC(=O)Nc1cc(-c2cc(C(c3ccc(Cl)cc3)N3CC(N(C)C)C3)c(-c3nnc[nH]3)s2)ccn1 (centres unmarked) [Compound 144]	94%	19%	111%				63%	
O=C(NO)c1sc(N2CCOCC2)nc1Cc1ccc(Cl)c(Cl)c1 [Compound 298, 4-(3,4-dichlorobenzyl)-N-hydroxy-2-(morpholin-4-yl)-1,3-thiazole-5-carboxamide]	95%	38%	103%	11%				
COc1cc(C(O)c2cc(-c3ccnc(C)c3)sc2-c2nnc[nH]2)c(F)cc1Cl (centres unmarked) [Compound 265]					64%	111%	64%	109%
COc1ccc2cc(Cc3nc(N4CCOCC4)sc3C(=O)O)ccc2c1 [Compound 288]	85%	19%	76%	14%				
CC(=O)Nc1cc(-c2cc([C@@H](c3ccc(Cl)cc3)N3CCC3)c(-c3nnc[nH]3)s2)ccn1 (single isomer, unassigned) [Compound 176]	109%	35%	109%	76%				
CC(=O)Nc1cc(-c2cc(C(NCCN(C)C)c3ccc(Cl)cc3)c(-c3nnc[nH]3)s2)ccn1 (centres unmarked) [Compound 184]	112%	16%	112%	76%				
CC(=O)Nc1cc(-c2cc(C(OC[C@@H]3CCCN3)c3ccc(Cl)cc3)c(-c3nnc[nH]3)s2)ccn1 (some centres unmarked) [Compound 242]	104%	36%	112%	81%				
N#Cc1c(N2CCOCC2)sc(C(=O)O)c1C(CCF)c1ccc2ccccc2c1 (centres unmarked) [Compound 365]					63%	112%	105%	117%
COCC(c1ccc2ccccc2c1)c1c(C(=O)O)sc(N2CCOCC2)c1C#N (centres unmarked) [Compound 306]	109%	51%	108%	81%				
N#Cc1c(N2CCOCC2)sc(C(=O)O)c1C(CCO)c1ccc2ccccc2c1 (centres unmarked) [Compound 363]					65%	106%	99%	113%
OC(c1ccc2c(c1)OCCO2)c1cc(-c2ccncc2)sc1-c1nnc[nH]1 (centres unmarked) [Compound 215]	85%	8%	51%	29%				
CC(=O)NC(c1ccc(Cl)cc1)c1c(C(=O)O)sc(N2CCOCC2)c1C#N (centres unmarked) [Compound 353]	87%	15%	80%	19%				
OC(c1ccc(F)cc1Cl)c1cc(-c2ccncc2)sc1-c1nnc[nH]1 (centres unmarked) [Compound 187]	95%	25%	77%	32%				
CC(=O)Nc1cc(-c2cc(C(c3ccc(Cl)cc3)N3CCN(C(C)=O)CC3)c(-c3nnc[nH]3)s2)ccn1 (centres unmarked) [Compound 196]	91%	12%	105%	69%				
OC(c1ccc(Cl)c(F)c1)c1cc(-c2ccncc2)sc1-c1nnc[nH]1 (centres unmarked) [Compound 232]	105%	26%	67%	38%				
COc1cc(C(O)c2cc(-c3ccnc(C)c3)sc2-c2nnc[nH]2)c(F)cc1Cl (centres unmarked) [Compound 285]					18%	77%	16%	83%
CC(=O)Nc1cc(-c2cc(C(c3ccc(Cl)cc3)N3CC(O)C3)c(-c3nnc[nH]3)s2)ccn1 (centres unmarked) [Compound 201]	105%	37%	110%	74%				
NCc1c[nH]c(-c2sc(-c3ccncc3)nc2Cc2ccc(Cl)cc2)n1 [Compound 255, (2-(4-(4-chlorobenzyl)-2-(pyridin-4-yl)thiazol-5-yl)-1H-imidazol-4-yl)methanamine]					5%	39%	0%	55%
CC(=O)Nc1cc(-c2cc(C(c3ccc(Cl)cc3)N(C)C3CN(C)C3)c(-c3nnc[nH]3)s2)ccn1 (centres unmarked) [Compound 160]	101%	20%	107%	74%				
O=C(O)c1sc(N2CCOCC2)c(C#Cc2ccccc2)c1Cc1ccc(Cl)c(Cl)c1 [Compound 296, 3-(3,4-dichlorobenzyl)-5-(morpholin-4-yl)-4-(phenylethynyl)thiophene-2-carboxylic acid]	79%	14%	107%	37%				
